Assay results reported in patent US20230335758A1, “REDOX FLOW BATTERY” (University of Massachusetts, priority 2022, published 2023).

What was measured:
[1] = Cyclic voltammetry of AQS (Randles-Sevcik analysis); format: physicochemical
Method: Cyclic voltammetry was performed at room temperature in inert atmosphere of dinitrogen using three electrode cell on a VersaSTAT3 workstation. (Princeton Applied Research, USA). Glassy carbon (3 mm, Basi) was employed as working electrode and platinum wire was used as counter electrode. Ag wire was used as pseudo reference electrode with Fc/Fc^+ couple as an internal standard for initial redox potential evaluation. Subsequently, all potentials were referenced to SHE. Diffusion coefficient was calculated using Randles-Sevcik equation as follow.
where, ip is the peak current, n is number electron in redox reaction, F is faraday constant, A is geometrical surface area of electrode, C is the bulk concentration of analyte, ν is scan rate, D is diffusion coefficient and R and T are gas constant and absolute temperature. CV curves were obtained at various scan rate and peak current were plotted against square root of scan rate. Slope (m) of the linear fit was used to determine diffusion coefficient using following equation.

[2] = Solubility of AQS ionic derivatives in MeCN, measured by UV-vis (Beer's law); format: physicochemical; details: cooled to room temperature after stirring at 40° C.
Excerpt: Beer's law was used to measure the concentration of the solution using pre-determined molar extinction coefficient using standard calibration curve.

[3] = vs. SHE in DMSO; cited from earlier work
[4] = vanadium(iv) ion chelation; cited from earlier work

Compound: O=C1c2ccccc2C(=O)c2cc(S(=O)(=O)O)ccc21 [AQS, Anthraquinone 2-sulfonate]
- diffusion coefficient ([1]; CV at various scan rates, Randles-Sevcik plot): 8.46×10^−6 cm^2 s^−1
- potential of first electrochemically reversible wave (1^−/2^− couple) ([1]; vs SHE): −0.6 V
- potential of second electrochemically reversible wave (2^−/3^− couple) ([1]; vs SHE): −1.2 V

Compound: O=C1c2ccccc2C(=O)c2cc(S(=O)(=O)[O-])ccc21.[Na+] [NaAQS, sodium anthraquinone-2-sulfonate, reference compound]
- solubility at 15 min ([2]; MeCN (acetonitrile), organic solvent or mixture, thermodynamic from solid): < 1 mM

Compound: O=C1c2ccccc2C(=O)c2ccccc21 [AQ, reference compound]
- Solubility [2]: <5 mM

Compound: vanadium(IV/V)bis-hydroxyiminodiacetate [VBH]
- E° (standard potential) [3]: 0.30 V

Compound: CC[N+](CC)(CC)CC.O=C1c2ccccc2C(=O)c2cc(S(=O)(=O)[O-])ccc21 [N2222AQS]
- Solubility [2]: 105 mM

Compound: C[C@@H](C(=O)[O-])N(O)[C@@H](C)C(=O)[O-].C[C@@H](C(=O)[O-])N(O)[C@@H](C)C(=O)[O-].[V+4] [Amavadin]
- log equilibrium constant (log Keq), stability constant [4]: 23

Compound: CCCC[N+](CCCC)(CCCC)CCCC.O=C1c2ccccc2C(=O)c2cc(S(=O)(=O)[O-])ccc21 [N4444AQS]
- Solubility [2]: 1260 mM

Compound: CCC[N+](CCC)(CCC)CCC.O=C1c2ccccc2C(=O)c2cc(S(=O)(=O)[O-])ccc21 [N3333AQS]
- Solubility [2]: 640 mM
